Measurements as given in the NIST ThermoML archive (doi:10.1016/j.fluid.2013.01.027).
Numbers after ± are expanded uncertainties.

Conditions: 298.15 K; 101.33 kPa; Liquid; Vibrating tube method

| Compound | mass density [kg/m3] |
| --- | --- |
| CCCC[N+]1(C)CCCC1.FC(F)(F)C(F)(F)[P-](F)(F)(F)(C(F)(F)C(F)(F)F)C(F)(F)C(F)(F)F | 1582.63 ± 0.76 |
| c1ccccc1 [benzene] | 873.53 ± 0.14 |
| CCc1ccccc1 [ethylbenzene] | 862.97 ± 0.16 |
| c1ccsc1 [thiophene] | 1058.48 ± 0.28 |
| Cc1ccccc1 [toluene] | 863.67 ± 0.14 |

Second part, the compound after the results:

| mass density [kg/m3] | Compound |
| --- | --- |
| 805.78 ± 0.15 | CCCCO [butan-1-ol] |
| 826.38 ± 0.14 | CCCCCCCCCCO [decan-1-ol] |
| 823.35 ± 0.24 | CCCCCCCCCCCCO [dodecan-1-ol] |
| 814.94 ± 0.15 | CCCCCCO [hexan-1-ol] |
| 823.27 ± 0.14 | CCCCCCCCO [octan-1-ol] |
| 858.62 ± 0.24 | CCCc1ccccc1 [propylbenzene] |
